Test results taken from ChEMBL document CHEMBL2429721, “Novel 2,6-bis(4-methoxyphenyl)-1-methylpiperidin-4-one oxime esters: synthesis and a new insight into their antioxidant and antimicrobial potential” (Med Chem Res, 2013).

Key:
Type in all cases: functional
[1] = test system: Candida albicans; assay: Antifungal activity against Candida albicans MTCC 3017 assessed as growth inhibition at 500 ug/mL after 72 hrs by agar well plate method; details: MTCC 3017, 72 h, read-out: DIZ
[2] = test system: Candida albicans; assay: Antifungal activity against Candida albicans MTCC 3017 assessed as growth inhibition at 1000 ug/mL after 72 hrs by agar well plate method; details: MTCC 3017, 72 h, read-out: DIZ
[3] = Antifungal activity against Chrysosporium keratinophilum MTCC 2827 assessed as growth inhibition at 500 ug/mL after 72 hrs by agar well plate method
[4] = test system: Pseudomonas aeruginosa; assay: Antibacterial activity against Pseudomonas aeruginosa ATCC 27853 assessed as growth inhibition at 500 ug/mL after 24 hrs by agar well plate method; details: ATCC 27853, 24 h, read-out: DIZ
[5] = test system: Pseudomonas aeruginosa; assay: Antibacterial activity against Pseudomonas aeruginosa ATCC 27853 assessed as growth inhibition at 1000 ug/mL after 24 hrs by agar well plate method; details: ATCC 27853, 24 h, read-out: DIZ
[6] = test system: Staphylococcus aureus; assay: Antibacterial activity against Staphylococcus aureus ATCC 25923 assessed as growth inhibition at 500 ug/mL after 24 hrs by agar well plate method; details: ATCC 25923, 24 h, read-out: DIZ
[7] = test system: Staphylococcus aureus; assay: Antibacterial activity against Staphylococcus aureus ATCC 25923 assessed as growth inhibition at 1000 ug/mL after 24 hrs by agar well plate method; details: ATCC 25923, 24 h, read-out: DIZ
[8] = test system: Escherichia coli; assay: Antibacterial activity against Escherichia coli ATCC 25922 assessed as growth inhibition at 500 ug/mL after 24 hrs by agar well plate method; details: ATCC 25922, 24 h, read-out: DIZ
[9] = test system: Escherichia coli; assay: Antibacterial activity against Escherichia coli ATCC 25922 assessed as growth inhibition at 1000 ug/mL after 24 hrs by agar well plate method; details: ATCC 25922, 24 h, read-out: DIZ
[10] = Antioxidant activity assessed as cupric ion reducing activity at 10 uM after 30 mins by CUPRAC assay
[11] = Antioxidant activity assessed as ferric ion reducing activity at 10 uM after 20 mins by FRAP assay
[12] = Antioxidant activity assessed as ABTS free radical scavenging activity after 30 mins
[13] = test system: Radical scavenging activity; assay: Antioxidant activity assessed as DPPH free radical scavenging activity after 20 mins by UV-visible spectrophotometric analysis
[14] = test system: Aspergillus flavus; assay: Antifungal activity against Aspergillus flavus MTCC 3306 assessed as growth inhibition at 1000 ug/mL after 72 hrs by agar well plate method; details: MTCC 3306, 72 h, read-out: DIZ
[15] = test system: Aspergillus flavus; assay: Antifungal activity against Aspergillus flavus MTCC 3306 assessed as growth inhibition at 500 ug/mL after 72 hrs by agar well plate method; details: MTCC 3306, 72 h, read-out: DIZ
[16] = Antifungal activity against Chrysosporium keratinophilum MTCC 2827 assessed as growth inhibition at 1000 ug/mL after 72 hrs by agar well plate method

SMILES	zone of inhibition at 500 µg/mL [1]	zone of inhibition at 1000 µg/mL [2]	inhibition zone (IZ) [3]	zone of inhibition at 500 µg/mL [4]	zone of inhibition at 1000 µg/mL [5]	zone of inhibition at 500 µg/mL [6]	zone of inhibition at 1000 µg/mL [7]	zone of inhibition at 500 µg/mL [8]	zone of inhibition at 1000 µg/mL [9]	Activity [10]	Activity [11]	IC50 [12]	IC50 [13]	zone of inhibition at 1000 µg/mL [14]	zone of inhibition at 500 µg/mL [15]	inhibition zone (IZ) [16]
COc1ccc(C2CC(=NO)CC(c3ccc(OC)cc3)N2C)cc1 (stereo not given)	1 mm	1 mm	1 mm	0 mm	1 mm	0 mm	1 mm	0 mm	1 mm	0.164	0.127	380 µM	165 µM	1 mm	0 mm	1 mm
COc1ccc(C2CC(=NOC(=O)c3ccc(Br)cc3)CC(c3ccc(OC)cc3)N2C)cc1 (stereo not given)	8 mm	9 mm	4 mm	7 mm	9 mm	6 mm	8 mm	6 mm	10 mm	0.215	0.265	121 µM	92 µM	5 mm	4 mm	6 mm
COc1ccc(C2CC(=NOC(=O)c3ccccc3)CC(c3ccc(OC)cc3)N2C)cc1 (stereo not given)	2 mm	3 mm	1 mm	1 mm	2 mm	2 mm	3 mm	1 mm	2 mm	0.111	0.132	375 µM	152 µM	1 mm	1 mm	2 mm
COc1ccc(C2CC(=NOC(=O)c3ccccc3OC(C)=O)CC(c3ccc(OC)cc3)N2C)cc1 (stereo not given)	5 mm	4 mm	2 mm	4 mm	5 mm	2 mm	5 mm	2 mm	4 mm	0.131	0.179	350 µM	132 µM	2 mm	1 mm	3 mm
COc1ccc(C2CC(=NOC(=O)c3cc([N+](=O)[O-])cc([N+](=O)[O-])c3)CC(c3ccc(OC)cc3)N2C)cc1 (stereo not given)	3 mm	8 mm	5 mm	6 mm	9 mm	3 mm	6 mm	4 mm	9 mm	0.145	0.195	312 µM	125 µM	4 mm	3 mm	5 mm
